Patent publication US8598086B2, “3-halo-(arly)-4-iminotetrahydropicolinates and their use as herbicides” (Dow AgroSciences, LLC., priority 2009, dated 2013)

Key:
Format in all cases: in vivo
[1] = test system: barnyardgrass (Echinochloa crus-galli); assay: Post-emergent Test II; details: after 14 d, 0 = no injury, 100 = complete kill
Description: (§1) Post-emergent Test II: Seeds or nutlets of the desired test plant species were planted in Sun Gro Metro-Mix® 360 planting mixture, which typically has a pH of 6.0 to 6.8 and an organic matter content of about 30 percent, in plastic pots with a surface area of 64 square centimeters. When required to ensure good germination and healthy plants, a fungicide treatment and/or other chemical or physical treatment was applied. The plants were grown for 7-21 d in a greenhouse with an approximate 15 h photoperiod which was maintained at about 23-29° C. during the day and 22-28° C. during the night. Nutrients and water were added on a regular basis and supplemental lighting was provided with overhead metal halide 1000-Watt lamps as necessary. The plants were employed for testing when they reached the first or second true leaf stage.
(§2) A weighed amount, determined by the highest rate to be tested, of each test compound was placed in a 25 mL glass vial and was dissolved in 4 mL of a 97:3 v/v mixture of acetone and DMSO to obtain concentrated stock solutions. […] The concentrated stock solutions obtained were diluted with 20 mL of an aqueous mixture containing acetone, water, isopropyl alcohol, DMSO, Atplus 411F crop oil concentrate, and Triton® X-155 surfactant in a 48.5:39:10:1.5:1.0:0.02 v/v ratio to obtain spray solutions containing the highest application rates. Additional application rates were obtained by serial dilution of 12 mL of the high rate solution into a solution containing 2 mL of 97:3 v/v mixture of acetone and DMSO and 10 mL of an aqueous mixture containing acetone, water, isopropyl alcohol, DMSO, Atplus 411F crop oil concentrate, and Triton X-155 surfactant in a 48.5:39:10:1.5:1.0:0.02 v/v ratio to obtain 1/2×, 1/4×, 1/8× and 1/16× rates of the high rate. Compound requirements are based upon a 12 mL application volume at a rate of 187 liters per hectare (L/ha). Formulated compounds were applied to the plant material with an overhead Mandel track sprayer equipped with 8002E nozzles calibrated to deliver 187 L/ha over an application area of 0.503 square meters at a spray height of 18 inches (43 cm) above the average plant canopy height. Control plants were sprayed in the same manner with the solvent blank.
(§3) The treated plants and control plants were placed in a greenhouse as described above and watered by subirrigation to prevent wash-off of the test compounds. After 14 d, the condition of the test plants as compared with that of the untreated plants was determined visually and scored on a scale of 0 to 100 percent where 0 corresponds to no injury and 100 corresponds to complete kill.

[2] = test system: bindweed (Polygonum convolvulus); assay: Post-emergent Test II; details: after 14 d, 0 = no injury, 100 = complete kill
Description: as §1, §2, §3

[3] = test system: lambsquarters (Chenopodium album); assay: Post-emergent Test II; details: after 14 d, 0 = no injury, 100 = complete kill
Description: as §1, §2, §3

[4] = test system: rice (Oryza sativa); assay: Post-emergent Test II; details: after 14 d, 0 = no injury, 100 = complete kill
Description: as §1, §2, §3

[5] = test system: velvetleaf (Abutilon theophrasti); assay: Post-emergent Test II; details: after 14 d, 0 = no injury, 100 = complete kill
Description: as §1, §2, §3

[6] = test system: giant foxtail (Setaria faberi); assay: Post-emergent Test I; details: 10 d after treatment, scale 0 (no activity) to 100 (complete plant death)
Description: (§4) Post-emergent Test I: Weed seeds were obtained from commercial suppliers and planted into 5″-round pots containing soilless media mix (Metro-Mix 360®, Sun Gro Horticulture Canada CM Ltd. Vancouver, British Columbia) 8-12 d prior to application and cultured in a greenhouse equipped with supplemental light sources to provide a 16 h photoperiod at 24-29° C. All pots were surface irrigated. Compounds were dissolved in a 97:3 v/v (volume per volume) mixture of acetone and dimethyl sulfoxide (DMSO) and diluted to the appropriate concentration in a final application solution containing water, acetone, isopropyl alcohol, DMSO and Agri-dex (crop oil concentrate) in a 59:23:15:1.0:1.5 v/v ratio and 0.02% w/v (weight per volume) of Triton X-155 to obtain the spray solution containing the highest application rate. The high application rate was serial diluted with the above application solution to provide delivery of the compound at rates 1/2×, 1/4× and 1/8× of the highest rate (equivalent to 4.0, 2.0, 1.0, and 0.5 kg/ha, respectively). Formulated compound (2.7 mL) was applied using a DeVilbiss® compressed air sprayer at 2-4 pounds per square inch (psi) […]. Following treatment, pots were allowed to dry before being returned to the greenhouse for the duration of the experiment and subirrigated as needed. All pots were fertilized one time per week by subirrigating with Peters Peat-Lite Special® fertilizer (20-10-20). Phytotoxicity ratings were obtained 10 d after treatment. All evaluations were made on a scale of 0 to 100 where 0 represents no activity and 100 represents complete plant death.

[7] = test system: ivyleaf morningglory (Ipomoea hederacea); assay: Post-emergent Test I; details: 10 d after treatment, scale 0 (no activity) to 100 (complete plant death)
Description: as §4

[8] = test system: pigweed (Amaranthus retroflexus); assay: Post-emergent Test I; details: 10 d after treatment, scale 0 (no activity) to 100 (complete plant death)
Description: as §4

[9] = test system: sunflower (Helianthus annuus); assay: Post-emergent Test I; details: 10 d after treatment, scale 0 (no activity) to 100 (complete plant death)
Description: as §4

[10] = test system: wild oat (Avena fatua); assay: Post-emergent Test I; details: 10 d after treatment, scale 0 (no activity) to 100 (complete plant death)
Description: as §4

[11] = test system: giant foxtail (Setaria faberi); assay: Pre-emergent Test I; details: 14 d after treatment, scale 0 (no herbicidal effect) to 100 (plant death or lack of emergence)
Description: (§5) Pre-emergent Test I: Weed seeds were obtained from commercial suppliers and planted into round plastic pots (5-inch diameter) containing silt loam soil (23% sand, 52% silt, 29% clay, 2.9% organic matter, CEC 16.6, pH 7.2). After planting, all pots were subirrigated 16 h prior to compound application. Compounds were dissolved in a 97:3 v/v mixture of acetone and DMSO and diluted to the appropriate concentration in a final application solution containing water, acetone, isopropyl alcohol, DMSO and Agri-dex (crop oil concentrate) in a 59:23:15:1.0:1.5 v/v ratio and 0.02% w/v of Triton X-155 to obtain the spray solution containing the highest application rate. The high application rate was serial diluted with the above application solution to provide delivery of the compound at rates 1/2×, 1/4× and 1/8× of the highest rate (equivalent to 4.0, 2.0, 1.0, and 0.5 kg/ha, respectively). Formulated compound (2.7 mL) was pipetted evenly over the soil surface followed by incorporation with water (15 mL). Following treatment, pots were returned to the greenhouse for the duration of the experiment. The greenhouse was programmed for an approximate 15 h photoperiod which was maintained at about 23-29° C. during the day and 22-28° C. during the night. Nutrients and water were added on a regular basis through surface irrigation and supplemental lighting was provided with overhead metal halide 1000-Watt lamps as necessary. Herbicidal effect ratings were obtained 14 d after treatment. All evaluations were made relative to appropriate controls on a scale of 0 to 100 where 0 represents no herbicidal effect and 100 represents plant death or lack of emergence from the soil.

[12] = test system: ivyleaf morningglory (Ipomoea hederacea); assay: Pre-emergent Test I; details: 14 d after treatment, scale 0 (no herbicidal effect) to 100 (plant death or lack of emergence)
Description: as §5

[13] = test system: pigweed (Amaranthus retroflexus); assay: Pre-emergent Test I; details: 14 d after treatment, scale 0 (no herbicidal effect) to 100 (plant death or lack of emergence)
Description: as §5

[14] = test system: sunflower (Helianthus annuus); assay: Pre-emergent Test I; details: 14 d after treatment, scale 0 (no herbicidal effect) to 100 (plant death or lack of emergence)
Description: as §5

[15] = test system: wild oat (Avena fatua); assay: Pre-emergent Test I; details: 14 d after treatment, scale 0 (no herbicidal effect) to 100 (plant death or lack of emergence)
Description: as §5

## COC(=O)C1=C(Br)/C(=N/OS(C)(=O)=O)CC(c2ccc(Cl)c(OC)c2F)N1 (stereo not drawn) [Compound 32, 3-bromo-6-(4-chloro-2-fluoro-3-methoxyphenyl)-4-[(E)-methanesulfonyloximino]-1,4,5,6-tetrahydropyridine-2-carboxylic acid methyl ester]
[1]; 140 g ai/ha
  Visual injury score ECHCG: 90%
[2]; 140 g ai/ha
  Visual injury score POLCO: 90%
[3]; 140 g ai/ha
  Visual injury score CHEAL: 100%
[4]; 140 g ai/ha
  Visual injury score ORYSA: 15%
[5]; 140 g ai/ha
  Visual injury score ABUTH: 100%

## CCOC(=O)C1=C(Cl)/C(=N/OS(C)(=O)=O)CC(c2ccc(Cl)c(OC)c2F)N1 (stereo not drawn) [Compound 30, 3-Chloro-6-(4-chloro-2-fluoro-3-methoxyphenyl)-4-[(E)-methanesulfonyloximino]-1,4,5,6-tetrahydropyridine-2-carboxylic acid ethyl ester]
[6]; 3400 g ai/ha
  Phytotoxicity rating SETFA: 85
[7]; 3400 g ai/ha
  Phytotoxicity rating IPOHE: 95
[8]; 3400 g ai/ha
  Phytotoxicity rating AMARE: 100
[9]; 3400 g ai/ha
  Phytotoxicity rating HELAN: 90
[10]; 3400 g ai/ha
  Phytotoxicity rating AVEFA: 30
[11]; 3400 g ai/ha
  Herbicidal effect rating SETFA: 100
[12]; 3400 g ai/ha
  Herbicidal effect rating IPOHE: 100
[13]; 3400 g ai/ha
  Herbicidal effect rating AMARE: 100
[14]; 3400 g ai/ha
  Herbicidal effect rating HELAN: 100
[15]; 3400 g ai/ha
  Herbicidal effect rating AVEFA: 95

## COC(=O)C1=C(Cl)/C(=N/OC(C)=O)CC(c2ccc(Cl)c(OC)c2F)N1 (stereo not drawn) [Compound 35, 3-chloro-6-(4-chloro-2-fluoro-3-methoxyphenyl)-4-[(E)-acetoxyoximino]-3-chloro-1,4,5,6-tetrahydropyridine-2-carboxylic acid methyl ester]
[1]; 70 g ai/ha
  Visual injury score ECHCG: 90%
[2]; 70 g ai/ha
  Visual injury score POLCO: 100%
[3]; 70 g ai/ha
  Visual injury score CHEAL: 100%
[4]; 70 g ai/ha
  Visual injury score ORYSA: 0%
[5]; 70 g ai/ha
  Visual injury score ABUTH: 100%

## COC(=O)C1=C(Cl)/C(=N/OS(=O)(=O)c2ccc(C)cc2)CC(c2ccc(Cl)c(OC)c2F)N1 (stereo not drawn) [Compound 31, 3-Chloro-6-(4-chloro-2-fluoro-3-methoxyphenyl)-4-[(E)-p-toluenesulfonyloximino]-1,4,5,6-tetrahydropyridine-2-carboxylic acid methyl ester]
[6]; 4000 g ai/ha
  Phytotoxicity rating SETFA: 80
[7]; 4000 g ai/ha
  Phytotoxicity rating IPOHE: 90
[9]; 4000 g ai/ha
  Phytotoxicity rating HELAN: 90
[10]; 4000 g ai/ha
  Phytotoxicity rating AVEFA: 40
[11]; 4000 g ai/ha
  Herbicidal effect rating SETFA: 10
[12]; 4000 g ai/ha
  Herbicidal effect rating IPOHE: 100
[13]; 4000 g ai/ha
  Herbicidal effect rating AMARE: 100
[14]; 4000 g ai/ha
  Herbicidal effect rating HELAN: 100
[15]; 4000 g ai/ha
  Herbicidal effect rating AVEFA: 10

## COC(=O)C1=C(Cl)/C(=N/OS(C)(=O)=O)CC(c2ccc(Cl)cc2)N1 (stereo not drawn) [Compound 27, 3-Chloro-6-(4-chlorophenyl)-4-[(E)-methanesulfonyloximino]-1,4,5,6-tetrahydropyridine-2-carboxylic acid methyl ester]
[6]; 3960 g ai/ha
  Phytotoxicity rating SETFA: 90
[7]; 3960 g ai/ha
  Phytotoxicity rating IPOHE: 85
[8]; 3960 g ai/ha
  Phytotoxicity rating AMARE: 100
[9]; 3960 g ai/ha
  Phytotoxicity rating HELAN: 95
[10]; 3960 g ai/ha
  Phytotoxicity rating AVEFA: 75
[11]; 3960 g ai/ha
  Herbicidal effect rating SETFA: 100
[12]; 3960 g ai/ha
  Herbicidal effect rating IPOHE: 100
[13]; 3960 g ai/ha
  Herbicidal effect rating AMARE: 100
[14]; 3960 g ai/ha
  Herbicidal effect rating HELAN: 100
[15]; 3960 g ai/ha
  Herbicidal effect rating AVEFA: 20

## CCOC(=O)C1=C(Cl)/C(=N/OS(C)(=O)=O)CC(c2ccc(Cl)cc2F)N1 (stereo not drawn) [Compound 26, 3-chloro-6-(4-chloro-2-fluorophenyl)-4-[(E)-methanesulfonyloximino]-1,4,5,6-tetrahydropyridine-2-carboxylic acid ethyl ester]
[6]; 3760 g ai/ha
  Phytotoxicity rating SETFA: 100
[7]; 3760 g ai/ha
  Phytotoxicity rating IPOHE: 100
[9]; 3760 g ai/ha
  Phytotoxicity rating HELAN: 100
[10]; 3760 g ai/ha
  Phytotoxicity rating AVEFA: 95
[11]; 3760 g ai/ha
  Herbicidal effect rating SETFA: 70
[12]; 3760 g ai/ha
  Herbicidal effect rating IPOHE: 100
[13]; 3760 g ai/ha
  Herbicidal effect rating AMARE: 100
[14]; 3760 g ai/ha
  Herbicidal effect rating HELAN: 70
[15]; 3760 g ai/ha
  Herbicidal effect rating AVEFA: 10
